Experimental data from patent US12264156B2, “Compounds and pharmaceutical compositions thereof for the treatment of diseases” (GALAPAGOS NV, priority 2018, dated 2025).

Assays:
Type in all cases: biochemical
Settings in all cases: ADP-Glo SIK kinase assay
SIK1 = molecular target: T1, SIK1 (Homo sapiens, UniProt P57059); assay: ADP-Glo kinase assay, SIK1
T1 construct: purchased Carna Biosciences 02-131
Outline: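 Wells with 1% DMSO or 10 μM staurosporine (final) define the control window. The kinase reaction with substrate and ATP runs 120 min at RT, followed by ADP-Glo detection: ATP depletion (40 min) and ADP-derived luminescence (30 min).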

SIK2 = molecular target: T2, SIK2 (Homo sapiens, UniProt Q9H0K1); assay: ADP-Glo kinase assay, SIK2
T2 construct: purchased ThermoFisher Scientific PV4792
T2 sequence (Q9H0K1 whole entry): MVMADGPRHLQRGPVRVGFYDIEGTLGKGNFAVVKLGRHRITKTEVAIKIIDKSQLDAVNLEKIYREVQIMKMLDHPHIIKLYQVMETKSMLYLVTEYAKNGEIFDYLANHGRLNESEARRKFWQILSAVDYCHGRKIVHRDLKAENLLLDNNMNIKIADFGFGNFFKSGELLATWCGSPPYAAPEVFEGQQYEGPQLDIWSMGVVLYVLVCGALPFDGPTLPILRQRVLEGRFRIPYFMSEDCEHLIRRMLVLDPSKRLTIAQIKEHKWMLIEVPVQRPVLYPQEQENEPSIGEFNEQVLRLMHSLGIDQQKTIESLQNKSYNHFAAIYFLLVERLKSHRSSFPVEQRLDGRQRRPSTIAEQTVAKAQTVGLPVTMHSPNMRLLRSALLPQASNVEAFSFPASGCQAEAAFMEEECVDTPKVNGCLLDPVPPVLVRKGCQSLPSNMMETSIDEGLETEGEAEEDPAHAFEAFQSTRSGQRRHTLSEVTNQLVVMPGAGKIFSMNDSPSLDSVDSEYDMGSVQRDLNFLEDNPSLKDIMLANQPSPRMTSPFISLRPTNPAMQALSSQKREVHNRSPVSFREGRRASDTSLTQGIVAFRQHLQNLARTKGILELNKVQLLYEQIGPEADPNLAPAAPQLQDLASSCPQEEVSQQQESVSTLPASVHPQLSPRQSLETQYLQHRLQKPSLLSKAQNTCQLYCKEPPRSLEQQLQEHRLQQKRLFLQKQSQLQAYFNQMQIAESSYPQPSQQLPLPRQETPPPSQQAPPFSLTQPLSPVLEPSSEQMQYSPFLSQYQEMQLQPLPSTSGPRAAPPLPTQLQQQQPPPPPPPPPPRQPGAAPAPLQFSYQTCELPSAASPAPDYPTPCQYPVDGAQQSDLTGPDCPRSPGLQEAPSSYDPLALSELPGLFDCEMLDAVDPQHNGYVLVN
Outline: (§1)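 Enzyme–substrate mix was started with ATP and incubated 120 min at RT. ADP formed was quantified by ADP-Glo: 40 min ATP depletion, then 30 min detection reagent converting ADP to ATP for luciferase luminescence, which rises with kinase activity. Controls: 1% DMSO and 10 μM staurosporine (final).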

SIK3 = molecular target: T3, SIK3 (Homo sapiens, UniProt Q9Y2K2); assay: ADP-Glo kinase assay, SIK3
T3 construct: purchased SignalChem S12-11G-100
T3 sequence (Q9Y2K2 whole entry): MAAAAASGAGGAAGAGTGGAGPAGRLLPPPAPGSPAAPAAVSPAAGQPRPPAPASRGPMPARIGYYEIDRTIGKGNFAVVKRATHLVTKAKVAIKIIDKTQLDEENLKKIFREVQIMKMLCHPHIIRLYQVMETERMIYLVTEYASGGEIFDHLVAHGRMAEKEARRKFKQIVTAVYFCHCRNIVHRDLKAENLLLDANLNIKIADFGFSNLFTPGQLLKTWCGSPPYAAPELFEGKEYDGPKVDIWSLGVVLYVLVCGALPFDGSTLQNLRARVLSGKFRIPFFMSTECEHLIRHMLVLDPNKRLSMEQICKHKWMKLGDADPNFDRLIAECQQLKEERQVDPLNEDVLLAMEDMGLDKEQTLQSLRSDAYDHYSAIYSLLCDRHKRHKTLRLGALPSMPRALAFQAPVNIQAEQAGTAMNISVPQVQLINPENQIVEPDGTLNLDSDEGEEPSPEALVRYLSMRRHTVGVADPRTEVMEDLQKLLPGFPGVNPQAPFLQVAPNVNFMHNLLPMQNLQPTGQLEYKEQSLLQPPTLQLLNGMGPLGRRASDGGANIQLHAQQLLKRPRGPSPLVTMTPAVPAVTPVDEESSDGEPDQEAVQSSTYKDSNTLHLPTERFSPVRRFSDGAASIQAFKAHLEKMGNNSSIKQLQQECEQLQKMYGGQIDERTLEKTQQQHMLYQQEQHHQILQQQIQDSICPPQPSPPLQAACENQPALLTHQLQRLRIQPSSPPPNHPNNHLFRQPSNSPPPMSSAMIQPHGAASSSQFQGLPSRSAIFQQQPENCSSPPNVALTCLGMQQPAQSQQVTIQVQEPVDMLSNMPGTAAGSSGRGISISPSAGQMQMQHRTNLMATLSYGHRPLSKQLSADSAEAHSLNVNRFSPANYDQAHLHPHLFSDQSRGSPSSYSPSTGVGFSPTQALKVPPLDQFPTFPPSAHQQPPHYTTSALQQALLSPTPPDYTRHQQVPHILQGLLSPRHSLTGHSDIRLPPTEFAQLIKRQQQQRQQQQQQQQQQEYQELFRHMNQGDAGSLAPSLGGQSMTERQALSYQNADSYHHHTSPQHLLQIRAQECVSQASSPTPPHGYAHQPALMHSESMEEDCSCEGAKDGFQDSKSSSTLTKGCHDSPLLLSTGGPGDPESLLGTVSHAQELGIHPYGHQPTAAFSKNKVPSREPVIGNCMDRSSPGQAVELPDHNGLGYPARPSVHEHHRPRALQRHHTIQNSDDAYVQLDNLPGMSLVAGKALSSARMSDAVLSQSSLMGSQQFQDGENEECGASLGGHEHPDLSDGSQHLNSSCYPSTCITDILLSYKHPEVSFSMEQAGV
Outline: as §1

T1 sequence (P57059 whole entry): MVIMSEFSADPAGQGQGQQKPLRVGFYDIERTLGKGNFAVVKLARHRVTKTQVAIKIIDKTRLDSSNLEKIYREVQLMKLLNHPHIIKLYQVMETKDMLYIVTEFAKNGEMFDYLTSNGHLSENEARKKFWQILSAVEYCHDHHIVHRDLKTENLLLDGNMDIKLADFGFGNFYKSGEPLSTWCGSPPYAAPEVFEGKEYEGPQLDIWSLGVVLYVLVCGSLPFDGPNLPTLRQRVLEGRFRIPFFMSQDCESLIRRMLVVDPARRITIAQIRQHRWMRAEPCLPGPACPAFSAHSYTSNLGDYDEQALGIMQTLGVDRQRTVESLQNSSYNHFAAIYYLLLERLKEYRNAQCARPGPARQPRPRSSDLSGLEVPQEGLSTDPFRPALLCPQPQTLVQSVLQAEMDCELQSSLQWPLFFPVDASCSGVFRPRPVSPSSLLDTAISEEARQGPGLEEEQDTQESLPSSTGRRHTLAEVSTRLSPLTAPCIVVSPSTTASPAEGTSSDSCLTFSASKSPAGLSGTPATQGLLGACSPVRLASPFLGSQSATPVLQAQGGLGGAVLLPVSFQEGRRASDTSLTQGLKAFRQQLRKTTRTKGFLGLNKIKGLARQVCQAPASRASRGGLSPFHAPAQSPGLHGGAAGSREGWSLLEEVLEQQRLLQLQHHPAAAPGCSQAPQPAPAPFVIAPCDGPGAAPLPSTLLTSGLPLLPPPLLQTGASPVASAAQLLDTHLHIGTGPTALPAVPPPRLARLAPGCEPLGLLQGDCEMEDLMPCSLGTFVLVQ

Row | IC50 (SIK1) | IC50 (SIK2) | IC50 (SIK3) | SMILES
1 | > 500 nM | > 500 nM | 10 to 100 nM | COCC(C)(C)Oc1ccn2c(-c3cc(OC)c(C(=O)NC4CC4)c(OC(F)F)c3)cnc2c1 [Cpd 260, N-cyclopropyl-2-(difluoromethoxy)-6-methoxy-4-[7-(2-methoxy-1,1-dimethyl-ethoxy)imidazo[1,2-a]pyridin-3-yl]benzamide]
2 | > 500 nM | > 500 nM | > 500 nM | COc1cc(-c2cnc3cc(OCCC#N)ccn23)cc(OC(F)F)c1C(=O)NC1CC1 [compound 31, 4-[7-(2-cyanoethoxy)imidazo[1,2-a]pyridin-3-yl]-N-cyclopropyl-2-(difluoromethoxy)-6-methoxy-benzamide]
3 | 10 to 100 nM | 0.01 to 10 nM | 0.01 to 10 nM | COc1cc(-c2cnc3cc(OCC4(C)CNC4)ccn23)cc(OC(F)F)c1C(=O)NC1CC1 [compound 208, N-cyclopropyl-2-(difluoromethoxy)-6-methoxy-4-[7-[(3-methylazetidin-3-yl)methoxy]imidazo[1,2-a]pyridin-3-yl]benzamide]
4 | 10 to 100 nM | 0.01 to 10 nM | 0.01 to 10 nM | COc1cc(-c2cnc3cc(OCc4cncs4)ccn23)cc(OC(F)F)c1C(=O)NC1CC1 [compound 95, N-cyclopropyl-2-(difluoromethoxy)-6-methoxy-4-[7-(thiazol-5-ylmethoxy)imidazo[1,2-a]pyridin-3-yl]benzamide]
5 | 0.01 to 10 nM | 0.01 to 10 nM | 0.01 to 10 nM | COc1cc(-c2cnc3cc(OCC4CCCNC4)ccn23)cc(OC(F)F)c1C(=O)NC1CC1 (stereo not drawn) [compound 143, N-cyclopropyl-2-(difluoromethoxy)-6-methoxy-4-[7-(3-piperidylmethoxy)imidazo[1,2-a]pyridin-3-yl]benzamide]
6 | 10 to 100 nM | 0.01 to 10 nM | 0.01 to 10 nM | COc1cc(-c2cnc3cc(OCC4CN(CCO)C4)ccn23)cc(OC(F)F)c1C(=O)NC1CC1 [Cpd 343, N-cyclopropyl-2-(difluoromethoxy)-4-[7-[[1-(2-hydroxyethyl)azetidin-3-yl]methoxy]imidazo[1,2-a]pyridin-3-yl]-6-methoxy-benzamide]
7 | 0.01 to 10 nM | 0.01 to 10 nM | 0.01 to 10 nM | COc1cc(-c2cnc3cc(OCC4CCN(C)CC4)ccn23)cc(OC(F)F)c1C(=O)NC1CC1 [compound 25, N-cyclopropyl-2-(difluoromethoxy)-6-methoxy-4-[7-[(1-methyl-4-piperidyl)methoxy]imidazo[1,2-a]pyridin-3-yl]benzamide]
8 | 10 to 100 nM | 0.01 to 10 nM | 0.01 to 10 nM | COc1cc(-c2cnc3cc(OCc4ccccn4)ccn23)cc(OC(F)F)c1C(=O)NC1CC1 [compound 105, N-cyclopropyl-2-(difluoromethoxy)-6-methoxy-4-[7-(2-pyridylmethoxy)imidazo [1,2-a]pyridin-3-yl]benzamide]
9 | 0.01 to 10 nM | 0.01 to 10 nM | 0.01 to 10 nM | COc1cc(-c2cnc3cc(OCCNc4ccccn4)ccn23)cc(OC(F)F)c1C(=O)NC1CC1 [compound 367, N-cyclopropyl-2-(difluoromethoxy)-6-methoxy-4-[7-[2-(2-pyridylamino)ethoxy]imidazo[1,2-a]pyridin-3-yl]benzamide]
10 | 0.01 to 10 nM | 0.01 to 10 nM | 0.01 to 10 nM | COc1cc(-c2cnc3cc(OCC4CCC(F)(F)C4)ccn23)cc(OC(F)F)c1C(=O)NC1CC1 (stereo not drawn) [compound 75, N-cyclopropyl-4-[7-[(3,3-difluorocyclopentyl)methoxy]imidazo[1,2-a]pyridin-3-yl]-2-(difluoromethoxy)-6-methoxy-benzamide]
11 | 10 to 100 nM | 0.01 to 10 nM | 0.01 to 10 nM | COc1cc(-c2cnc3cc(OCCN4CCC4)ccn23)cc(OC(F)F)c1C(=O)NC1CC1 [compound 112, 4-[7-[2-(azetidin-1-yl)ethoxy]imidazo[1,2-a]pyridin-3-yl]-N-cyclopropyl-2-(difluoromethoxy)-6-methoxy-benzamide]

The remaining lines, values behind:

Row | SMILES | IC50 (SIK1) | IC50 (SIK2) | IC50 (SIK3)
12 | COc1cc(-c2cnc3cc(OC[C@H]4CCN(CCC#N)C4)ccn23)cc(OC(F)F)c1C(=O)NC1CC1 [compound 350, 4-[7-[[(3S)-1-(2-cyanoethyl)pyrrolidin-3-yl]methoxy]imidazo[1,2-a]pyridin-3-yl]-N-cyclopropyl-2-(difluoromethoxy)-6-methoxy-benzamide] | 10 to 100 nM | 0.01 to 10 nM | 0.01 to 10 nM
13 | COc1cc(-c2cnc3cc(OCCCN4CC5(CCS5(=O)=O)C4)ccn23)cc(OC(F)F)c1C(=O)NC1CC1 [compound 332, N-cyclopropyl-2-(difluoromethoxy)-4-[7-[3-(1,1-dioxo-1λ^6-thia-6-azaspiro[3.3]heptan-6-yl)propoxy]imidazo[1,2-a]pyridin-3-yl]-6-methoxy-benzamide] | 10 to 100 nM | 0.01 to 10 nM | 0.01 to 10 nM
14 | CCOC(=O)C1CCCN(CCOc2ccn3c(-c4cc(OC)c(C(=O)NC5CC5)c(OC(F)F)c4)cnc3c2)C1 (stereo not drawn) [compound 392, ethyl 1-[2-[3-[4-(cyclopropylcarbamoyl)-3-(difluoromethoxy)-5-methoxy-phenyl]imidazo[1,2-a]pyridin-7-yl]oxyethyl]piperidine-3-carboxylate] | 10 to 100 nM | 0.01 to 10 nM | 0.01 to 10 nM
15 | COc1cc(-c2cnc3cc(OCC(N)C4CCOCC4)ccn23)cc(OC(F)F)c1C(=O)NC1CC1 (stereo not drawn) [compound 135, 4-[7-(2-amino-2-tetrahydropyran-4-yl-ethoxy)imidazo[1,2-a]pyridin-3-yl]-N-cyclopropyl-2-(difluoromethoxy)-6-methoxy-benzamide] | 10 to 100 nM | 0.01 to 10 nM | 0.01 to 10 nM
16 | COc1cc(-c2cnc3cc(OCCN4CCCC4=O)ccn23)cc(OC(F)F)c1C(=O)NC1CC1 [compound 63, N-cyclopropyl-2-(difluoromethoxy)-6-methoxy-4-[7-[2-(2-oxopyrrolidin-1-yl)ethoxy]imidazo[1,2-a]pyridin-3-yl]benzamide] | 0.01 to 10 nM | 0.01 to 10 nM | 0.01 to 10 nM
17 | COc1cc(-c2cnc3cc(OCCN4CCOCC4(C)C)ccn23)cc(OC(F)F)c1C(=O)NC1CC1 [compound 192, N-cyclopropyl-2-(difluoromethoxy)-4-[7-[2-(3,3-dimethylmorpholin-4-yl)ethoxy]imidazo[1,2-a]pyridin-3-yl]-6-methoxy-benzamide] | 10 to 100 nM | 0.01 to 10 nM | 0.01 to 10 nM
18 | COc1cc(-c2cnc3cc(OCCN4CCOCC4)ccn23)cc2ccn(CC(F)(F)F)c(=O)c12 [Cpd 221, 8-methoxy-6-[7-(2-morpholinoethoxy)imidazo [1,2-a]pyridin-3-yl]-2-(2,2,2-trifluoroethyl) isoquinolin-1-one] | > 500 nM | 10 to 100 nM | 10 to 100 nM
19 | Cc1cc(-c2cnc3cc(OCCN4CCOCC4)ccn23)cc(OC(F)F)c1C(=O)NCC(F)(F)F [compound 243, 2-(difluoromethoxy)-6-methyl-4-[7-(2-morpholinoethoxy)imidazo[1,2-a]pyridin-3-yl]-N-(2,2,2-trifluoroethyl)benzamide] | > 500 nM | 10 to 100 nM | 10 to 100 nM
20 | COc1cc(-c2cnc3cc(OCCN4CC5CCC(C4)O5)ccn23)cc(OC(F)F)c1C(=O)NC1CC1 [compound 195, N-cyclopropyl-2-(difluoromethoxy)-6-methoxy-4-[7-[2-(8-oxa-3-azabicyclo [3.2.1]octan-3-yl)ethoxy]imidazo[1,2-a]pyridin-3-yl]benzamide] | 10 to 100 nM | 0.01 to 10 nM | 0.01 to 10 nM
21 | COc1cc(-c2cnc3cc(OCC4(C)CN(C)C4)ccn23)cc2c1C(=O)N(CC(F)(F)F)CC2 [Cpd 253, 6-[7-[(1,3-dimethylazetidin-3-yl)methoxy]imidazo[1,2-a]pyridin-3-yl]-8-methoxy-2-(2,2,2-trifluoroethyl)-3,4-dihydroisoquinolin-1-one] | > 500 nM | 10 to 100 nM | 0.01 to 10 nM
22 | COc1cc(-c2cnc3cc(OCCN4CCCC(F)C4)ccn23)cc(OC(F)F)c1C(=O)NC1CC1 (stereo not drawn) [compound 212, N-cyclopropyl-2-(difluoromethoxy)-4-[7-[2-(3-fluoro-1-piperidyl)ethoxy]imidazo[1,2-a]pyridin-3-yl]-6-methoxy-benzamide] | 10 to 100 nM | 0.01 to 10 nM | 0.01 to 10 nM
23 | COc1cc(-c2cnc3cc(OC4CCCN(C)C4)ccn23)cc(OC)c1C(=O)NCC(F)(F)F (stereo not drawn) [Cpd 5, 2,6-dimethoxy-4-[7-[(1-methyl-3-piperidyl)oxy]imidazo[1,2-a]pyridin-3-yl]-N-(2,2,2-trifluoroethyl)benzamide] | > 500 nM | 100 to 500 nM | 10 to 100 nM
24 | COc1cc(-c2cnc3cc(OCCCN4CCC(S(C)(=O)=O)CC4)ccn23)cc(OC(F)F)c1C(=O)NC1CC1 [compound 347, N-cyclopropyl-2-(difluoromethoxy)-6-methoxy-4-[7-[3-(4-methylsulfonyl-1-piperidyl)propoxy]imidazo[1,2-a]pyridin-3-yl]benzamide] | 10 to 100 nM | 0.01 to 10 nM | 0.01 to 10 nM
25 | COc1cc(-c2cnc3cc(OCCN(CC(F)F)C4CC4)ccn23)cc(OC(F)F)c1C(=O)NC1CC1 [compound 235, N-cyclopropyl-4-[7-[2-[cyclopropyl (2,2-difluoroethyl)amino]ethoxy]imidazo [1,2-a]pyridin-3-yl]-2-(difluoromethoxy)-6-methoxy-benzamide] | 0.01 to 10 nM | 0.01 to 10 nM | 0.01 to 10 nM
26 | COc1cc(-c2cnc3cc(OCC4CCCCN4S(C)(=O)=O)ccn23)cc(OC(F)F)c1C(=O)NC1CC1 (stereo not drawn) [Cpd 129, N-cyclopropyl-2-(difluoromethoxy)-6-methoxy-4-[7-[(1-methylsulfonyl-2-piperidyl)methoxy]imidazo[1,2-a]pyridin-3-yl]benzamide] | 0.01 to 10 nM | 0.01 to 10 nM | 0.01 to 10 nM
